Laboratory results as given in publication PMC3409115, “Diverse Inhibitor Chemotypes Targeting Trypanosoma cruzi CYP51” (PLoS Neglected Tropical Diseases, 2012).
Like-named read-outs stand apart in the source and are kept apart here.

Columns and labels:
[1] = tested on: T. cruzi-infected skeletal myoblasts (intracellular amastigotes); assay: Hit cross-validation in T. cruzi-infected mammalian cells (image-based assay); assay type: cell-based, Trypanosoma cruzi; details: Trypanosoma cruzi, Myoblast, 72 h, read-out: EC50 against T. cruzi parasites in HTS assay used to rank order the hits
Protocol: Bovine embryo skeletal muscle cells or mouse C2C12 myoblasts (ATCC#CRL-1772) used in the cross-validation assay, were cultivated respectively in RPMI 1640 medium supplemented with 5% horse serum and Dulbecco's Modified Eagle's Medium H-21 containing 4.5 g/l glucose (DMEM H-21) (Cell Culture Facility, UCSF), supplemented with 5% fetal bovine serum (FBS) (Sigma Chemical Co., St. Louis, MO, USA), 25 mM HEPES, 2 mM L-glutamine, 100 U/ml penicillin, 100 µg/ml streptomycin. T. cruzi CAI-72 trypomastigotes were obtained from supernatant of infected cultures 4 to 7 days post-infection. Cultures were maintained at 37°C in an atmosphere of 5% CO2. To harvest parasites, the supernatant of infected cultures containing released trypomastigotes was collected and centrifuged at 600 rpm for 5 min to remove cell debris; the pellet was then discarded and the trypomastigotes remaining in the media were concentrated by spinning the culture tubes at 3300 rpm for 15 minutes. The parasite pellet was re-suspended in 2–5 ml of fresh media. Trypomastigote concentration was determined using a Neubauer hemocytometer.
(§1) Compound cross-validation in T. cruzi infected skeletal myoblasts (bovine embryo skeletal muscle or C2C12 lineage) was performed according to the protocol adapted from Engel and co-authors. Compounds stored as 10 mM stocks in DMSO were freshly diluted immediately prior to use. […] To prepare plates for the assay, skeletal myoblasts cultured in […] flasks were washed once with phosphate buffered saline (PBS) and then incubated with 0.25% trypsin in PBS for 1–3 minutes for detachment. The trypsin solution was removed and myoblasts were released from the flask bottom. Fresh medium was added and cell concentration was determined using a Neubauer hemocytometer. Myoblasts in 50 µl of culture medium were transferred to the clear-bottom wells of black 96-well plates (Greiner Bio-One, #655090) at a density of 1500 cells/well and infected with 50 µl trypomastigote culture at 7500 parasites/well (1∶5 ratio). The cells were allowed to adhere and spread for 24 h in the incubator before the media was removed and 100 µl of fresh medium containing 0, 0.04, 0.12, 0.37, 1.10, 3.30 or 10 µM of test compound was added to each well, followed by 72 h incubation at 37°C in an atmosphere of 5% CO2. Posaconazole was used as a positive control at the same concentrations as the test compounds. The cells were then fixed by adding 100 µl/well of 8% formaldehyde in PBS, resulting in a 4% working concentration of formaldehyde. To stain the nucleus of the host cell and the nucleus and kinetoplast of parasites, cell membranes were first permeabilized by washing once with 100 µl of 0.1% Triton X-100 in PBS, then treated for 1 h with 0.2 µg/ml of the fluorescent DNA dye, 4,6-diamidino-2-phenylindole (DAPI), followed by one wash with PBS. The fixed plates were kept at 4°C and protected from light until images were acquired.
(§2) Plates were allowed to equilibrate to room temperature and images were acquired by the IN Cell Analyzer 2000 (GE Healthcare) with a 20× objective, 5 fields per well, with 350/50 nm and 460/40 nm fluorescent excitation and emission filters. In the absence of drug cytotoxicity, at least 800 cells were imaged and counted per well. The images were processed and analyzed by IN Cell Analyzer Developer 1.6 software. The size parameters used to segment host and parasite organelles were 125 µm^2 for host nucleus, and 1–2 µm^2 for parasite nucleus/kinetoplast. Since DAPI also strongly stains host heterochromatin regions that display as shapes resembling parasites ( Figure 3 ), particles co-localized to host nuclei were excluded from quantification, while parasite aggregates near the host nucleus were counted as infected cells.

[2] = tested on: host cell (skeletal myoblasts, bovine embryo skeletal muscle or C2C12); assay: Host cell toxicity in the cross-validation assay; assay type: cell-based; details: host cells in cross-validation assay, up to 10 µM
Protocol: as §1
as §2, with “cells. Numbers of host cells and intracellular amastigotes were determined based on host cell and parasite nucleus and parasite kinetoplast quantification, providing a measure of growth inhibition during the first 72 h of post-infection treatment compared to untreated controls.” for “cells.”
^aToxicity was assessed as the highest percentage of host cell growth inhibition caused by compound treatment. Scores are assigned as 1-<20%; 2-21-30%; 3- 31-40%; 4-41-50% and 5->50% growth inhibition.

[3] = biological target: T1, T. cruzi CYP51 (Trypanosoma cruzi, UniProt Q7Z1V1); assay: HTS spectral-mode binding screen, type II difference spectra scored 0-5
T1 construct: had the first 21 residues upstream of K22 replaced with the fragment MAKKKKK; His6 (C); made in house
T1 sequence (Q7Z1V1 15-481, looked up, natural form): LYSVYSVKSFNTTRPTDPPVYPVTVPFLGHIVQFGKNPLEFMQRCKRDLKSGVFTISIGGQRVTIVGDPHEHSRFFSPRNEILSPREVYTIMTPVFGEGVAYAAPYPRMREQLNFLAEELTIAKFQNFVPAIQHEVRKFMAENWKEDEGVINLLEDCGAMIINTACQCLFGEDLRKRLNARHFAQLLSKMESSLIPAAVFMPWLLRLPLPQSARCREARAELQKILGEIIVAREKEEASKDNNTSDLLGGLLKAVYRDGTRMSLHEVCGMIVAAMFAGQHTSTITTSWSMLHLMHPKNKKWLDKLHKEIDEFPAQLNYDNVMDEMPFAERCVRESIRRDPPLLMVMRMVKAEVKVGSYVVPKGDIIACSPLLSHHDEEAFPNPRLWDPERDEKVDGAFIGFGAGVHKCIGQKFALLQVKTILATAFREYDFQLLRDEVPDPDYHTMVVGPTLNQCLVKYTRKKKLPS

[4] = T. cruzi-infected myoblasts, 72 h treatment
[5] = spectral mode, four serial dilutions 2 µM to 12.5 µM, 2 µM CYP51

## Brc1ccc(OCCCn2ccnc2)cc1 [Compound 25]
[1]; [4]
  EC50: 3.66 µM
[2]
  Toxicity score (highest percentage of host cell growth inhibition): 2 (2-21-30%)

## CCO/C(O)=C1/C(C)=NC2=C(C(=O)CC(c3ccccc3)C2)C1c1cccnc1 (centres unmarked) [Compound 28]
[1]; [4]
  EC50: 5 µM
[3]; type II difference spectra scored 0-5, second highest rated hit compound cluster
  HTS binding score: 4

## Cc1ccc2nc(NC(=O)C3CCN(S(=O)(=O)c4cccnc4)CC3)sc2c1 [Compound 39]
[1]
  EC50: 7.64 µM
[2]
  Toxicity score (highest percentage of host cell growth inhibition): 1 (1-<20%)

## O=C(Cc1coc2ccc3ccccc3c12)NCc1cccnc1 [Compound 44]
[1]
  EC50: 7.93 µM
[2]
  Toxicity score (highest percentage of host cell growth inhibition): 2 (2-21-30%)

## Clc1ccc(Cl)c(SCCc2ccncc2)c1 [Compound 38]
[1]
  EC50: 7.41 µM
[2]
  Toxicity score (highest percentage of host cell growth inhibition): 2 (2-21-30%)

## C/C(=N\OC(=O)c1c(-c2ccccc2Cl)noc1C)c1ccncc1 [Compound 33]
[1]
  EC50: 6.78 µM
[2]
  Toxicity score (highest percentage of host cell growth inhibition): 3 (3- 31-40%)

## Cc1ccc(C)c(CN2CCCCC2c2cccnc2)c1 (centres unmarked) [Compound 48]
[1]
  EC50: 8.24 µM
[3]; [5]
  HTS binding score: 4

## O=C(NCCc1ccncc1)Nc1ccc(Cl)c(Cl)c1 [Compound 20]
[1]
  EC50: 2.55 µM
[2]
  Toxicity score (highest percentage of host cell growth inhibition): 1 (1-<20%)

## O=C(Cn1ccnc1)c1ccc(Cl)cc1Cl [Compound 26]
[1]
  EC50: 4.53 µM
[3]; [5]
  HTS binding score: 2

## COc1cccc(/C=C/c2ccncc2)c1OC [Compound 24]
[1]
  EC50: 2.98 µM
[3]; [5]
  HTS binding score: 2

## Cc1sc2nc(SCC(=O)NCCCn3ccnc3)nc(O)c2c1C [Compound 127]
[3]; [5]
  HTS binding score: 4

## COc1cccc(-c2noc(C(=O)NCCCn3ccnc3)n2)c1 [Compound 84]
[3]; [5]
  HTS binding score: 4

## COc1cc(OC)cc(-c2nc3n(n2)C(c2ccncc2)C2=C(O)CC(C)(C)CC2=N3)c1 (centres unmarked) [Compound 162]
[3]; [5]
  HTS binding score: 4

## O=C1C2(c3ccccc3)CN3CC1(c1ccccc1)CN(C2)C3c1cccnc1 (centres unmarked) [Compound 130]
[3]; [5]
  HTS binding score: 4

## O=C(NCCCn1ccnc1)C1CC(c2cccc(Br)c2)=NO1 (centres unmarked) [Compound 126]
[3]; [5]
  HTS binding score: 4

## O=S(=O)(Nc1ccc(Cc2ccncc2)cc1)c1ccc(Br)cc1 [Compound 142]
[3]; [5]
  HTS binding score: 4

## COc1ccccc1C(=O)O/N=C(\c1ccccc1)c1ccncc1 [Compound 89]
[3]; [5]
  HTS binding score: 4

## CC(C)c1nnc(N2C(=O)c3oc4ccccc4c(=O)c3C2c2cccnc2)s1 (centres unmarked) [Compound 144]
[3]; [5]
  HTS binding score: 4

## CCCC/N=C(\S)N1CCn2cccc2C1c1cccnc1 (centres unmarked) [Compound 30]
[1]
  EC50: 6.33 µM

## CCc1cc2c(cc3c(=O)n(CC(=O)NCc4cccnc4)ncn32)s1 [Compound 118]
[3]; [5]
  HTS binding score: 4

## COC(=O)C1=C(N)Oc2cc(C)n(CCCn3ccnc3)c(=O)c2C1c1ccc(Cl)cc1 (centres unmarked) [Compound 175]
[3]; [5]
  HTS binding score: 4

## CCOC(=O)c1c(C)n(-c2ccc(C)cc2)c2ccc(OCC(O)Cn3ccnc3)cc12 (centres unmarked) [Compound 165]
[3]; [5]
  HTS binding score: 4

## Cc1ccc(C)c(OCCCCn2ccnc2)c1 [Compound 17]
[1]; [4]
  EC50: 2.36 µM
[3]; [5]
  HTS binding score: 4

## COc1ccc(S(=O)(=O)NC(C)c2ccc(-n3ccnc3)cc2)c2ccccc12 (centres unmarked) [Compound 147]
[3]; [5]
  HTS binding score: 4

## CC(NC(=O)C12CC3CC(C1)CC(n1cncn1)(C3)C2)C12CC3CC(CC(C3)C1)C2 (centres unmarked) [Compound 148]
[3]; [5]
  HTS binding score: 4

## CC1Cc2cc(C(=O)C3=C(O)C(=O)N(Cc4cccnc4)C3c3cccs3)ccc2O1 (centres unmarked) [Compound 164]
[3]; [5]
  HTS binding score: 4

## COc1cccc(C2C(C(=O)Nc3cccnc3)=C(C)Nc3nc(-c4cccc(C)c4)nn32)c1OC (centres unmarked) [Compound 182]
[3]; [5]
  HTS binding score: 4

## CC1=NN(C(=O)COc2ccccc2C)C(O)(c2cccnc2)C1 (centres unmarked) [Compound 83]
[3]; [5]
  HTS binding score: 4

## N=C(NOS(=O)(=O)c1ccc(Cl)cc1)c1ccncc1 [Compound 71]
[3]; [5]
  HTS binding score: 5

## c1cc(-c2nnn(CCOCCn3nnc(-c4ccncc4)n3)n2)ccn1 [Compound 117]
[3]; [5]
  HTS binding score: 4

## c1ccc(-c2cc(NCCCn3ccnc3)n3c(n2)nc2ccccc23)cc1 [Compound 119]
[3]; [5]
  HTS binding score: 4

## Cc1cc(C=C2C(=O)c3ccccc3C2=O)c(C)n1-c1ccncc1 [Compound 85]
[3]; [5]
  HTS binding score: 4

## O=C(Cn1nc(-c2ccc(Cl)cc2)c2ccccc2c1=O)NCc1cccnc1 [Compound 145]
[3]; [5]
  HTS binding score: 4

## Cc1[nH]c2ccccc2c1C(Nc1cccc(F)c1)c1cccnc1 (centres unmarked) [Compound 88]
[3]; [5]
  HTS binding score: 4

## Cc1cc(Cl)ccc1OCCCC(=O)NCc1ccncc1 [Compound 78]
[3]; [5]
  HTS binding score: 4

## COCc1cc(C)nc2c1C(=O)NC(c1cccnc1)N2Cc1ccccc1 (centres unmarked) [Compound 124]
[3]; [5]
  HTS binding score: 4

## O=C(Cc1cccc(O)c1)Nc1cc(-c2ccncc2)cnc1O [Compound 80]
[3]; [5]
  HTS binding score: 4

## O=C(CN(c1ccc(Cl)cc1Cl)S(=O)(=O)c1ccccc1)NCc1ccncc1 [Compound 173]
[3]; [5]
  HTS binding score: 4

## O=C(c1ccc(Cl)cc1Cl)C(c1cccnc1)C(O)C(Cl)(Cl)Cl (centres unmarked) [Compound 151]
[3]; [5]
  HTS binding score: 5

## O=C(CN(Cc1ccccc1)S(=O)(=O)c1ccccc1)NCc1ccncc1 [Compound 139]
[3]; [5]
  HTS binding score: 5

## O=C(c1ccncc1)N(c1ccc2oc3c(c2c1)CCCC3)S(=O)(=O)c1cccs1 [Compound 167]
[3]; [5]
  HTS binding score: 4

## CCN(Cc1ccncc1)/C(S)=N/CCc1ccccc1 [Compound 59]
[3]; [5]
  HTS binding score: 5

## COc1cccc(CNCc2cccnc2)c1OCc1ccc(Cl)cc1 [Compound 120]
[3]; [5]
  HTS binding score: 4

## COc1ccc(-c2cc(C(F)(F)F)nc(NCc3cccnc3)n2)cc1OC [Compound 137]
[3]; [5]
  HTS binding score: 4

## COc1ccc(CNc2nc3ccccc3c3nc(-c4ccncc4)nn23)cc1 [Compound 132]
[3]; [5]
  HTS binding score: 5

## Cc1n[nH]c(C)c1CCc1nc2c3ccccc3nc(NCc3cccnc3)n2n1 [Compound 140]
[3]; [5]
  HTS binding score: 5

## OC1=C2C(=Nc3nc(-c4cccnc4)nn3C2c2ccc(Cl)cc2)CCC1 (centres unmarked) [Compound 128]
[3]; [5]
  HTS binding score: 4

## Cc1ccc(Sc2c(C(=O)NCc3cccnc3)[nH]c3ccccc23)cc1 [Compound 123]
[3]; [5]
  HTS binding score: 4

## O=c1c2cnn(-c3ccc(Cl)cc3)c2ncn1Cc1cccnc1 [Compound 98]
[3]; [5]
  HTS binding score: 5

## CC(C)(C)NC(=O)c1cccc(NC(=O)c2ccc3c(c2)C(=O)N(Cc2cccnc2)C3=O)c1 [Compound 176]
[3]; [5]
  HTS binding score: 4

## Cc1cc(Cl)ccc1OCCCC(=O)Nc1cccnc1 [Compound 62]
[3]; [5]
  HTS binding score: 4
